Test results published in patent US6709647B2, “Antimicrobial deodorant compositions” (Unilever Home & Personal Care USA, a division of Conopco, …, priority 2001, dated 2004).

Assays:
[1] = system: Staphylococcus epidermidis; test: Cell suspension kill test in MES buffer, quench, plate count; assay type: cell-based; conditions: 50 mM MES pH 6.5; for Bacterial no. After 60 mins. / Bacterial no. Immediate: S. epidermidis suspension, amounts in weight %; for Bacterial no. Immediate: sample removed immediately; for Reduction in bacterial no. / Bacterial no. (concentration of bacteria remaining after 60 minutes): S. epidermidis; for Reduction in bacterial no.: amounts in mM; for Bacterial no. (concentration of bacteria remaining after 60 minutes): Table 6, percarbonate
Protocol: A cell suspension of Staphylococcus epidermidis in 50 mM MES buffer (2-[N-morpholino]ethanesulfonic acid, Sigma M5287) was prepared to an OD600 nm of 0.022 and equal portions were treated with the components indicated in Table 3, to give the weight percentages also indicated. Samples were removed immediately and after 60 minutes; said samples being decimally diluted in a quench solution (vide infra) and then plated onto a suitable culture medium. The plates were incubated at 37° C. for 48 hours, then read and the bacterial numbers calculated.
The quench solution used was a solution of:
in 37.5 mM phosphate buffer, at pH 7.9, containing 0.05% v/v Triton X-100 (iso-octyl phenoxy polyoxyethanol).
In this Table, the amounts indicated are milliMolar concentrations and the antimicrobial effect is expressed in terms of the reduction in bacterial numbers achieved.
In these Tables, the amounts indicated are milliMolar concentrations and the antimicrobial effect is expressed in terms of the concentration of bacteria remaining after 60 minutes.

Corynebacteria = test: Cell suspension kill test in MES buffer, quench, plate count (Corynebacteria); assay type: cell-based; conditions: amounts in mM; for Bacterial no. After 60 mins.: 50 mM MES pH 6.5, after 60 minutes; for Bacterial no. Immediate: 50 mM MES pH 6.5, sample removed immediately
Protocol: A cell suspension of Staphylococcus epidermidis in 50 mM MES buffer (2-[N-morpholino]ethanesulfonic acid, Sigma M5287) was prepared to an OD600 nm of 0.022 and equal portions were treated with the components indicated in Table 3, to give the weight percentages also indicated. […] The plates were incubated at 37° C. for 48 hours, then read and the bacterial numbers calculated. The quench solution used was a solution of: in 37.5 mM phosphate buffer, at pH 7.9, containing 0.05% v/v Triton X-100 (iso-octyl phenoxy polyoxyethanol). An analogous experiment to that performed with Example 3, with the modification of using Corynebacteria rather than S. epidermidis, was performed with the components indicated in Table 5. In this Table, the amounts indicated are milliMolar concentrations and the effect is expressed as in Table 3.

| Molecule | Reduction in bacterial no. [1] [Log10cfu/ml] | Bacterial no. After 60 mins. (Corynebacteria) [Log10cfu/ml] | Bacterial no. Immediate (Corynebacteria) [Log10cfu/ml] | further results |
| --- | --- | --- | --- | --- |
| O=C(O)c1ccccn1 [D, Picolinic acid] |  |  |  | Bacterial no. After 60 mins. [1]: 6.50 Log10cfu/ml; Bacterial no. Immediate [1]: 6.60 Log10cfu/ml |
| O=C(CCCCCN1C(=O)c2ccccc2C1=O)OO [Example E, phthalimidoperoxy hexanoic acid] |  |  |  | Bacterial no. After 60 mins. [1]: 6.50 Log10cfu/ml; Bacterial no. Immediate [1]: 6.47 Log10cfu/ml |
| O=C(O)c1ccccn1 [Example F, Picolinic acid] | <2.59 |  |  |  |
| O.O=BO[O-].[Na+] [Example G, Perborate.H2O] | <2.59 |  |  |  |
| O=C(O)c1ccccn1 [J, Picolinic acid] |  | 6.0 | 6.1 |  |
| OO [K, Hydrogen peroxide] |  | 4.6 | 6.1 |  |
| O=C(O)CN(CCN(CC(=O)O)CC(=O)O)CCN(CC(=O)O)CC(=O)O [L, Diethylenetriaminapentaacetic acid] |  | 5.9 | 6.0 |  |
| O=C([O-])[O-].O=C([O-])[O-].OO.OO.OO.[Na+].[Na+].[Na+].[Na+] [N, Percarbonate] |  |  |  | Bacterial no. (concentration of bacteria remaining after 60 minutes) [1]: 6.13 Log10cfu/ml |
| O=C([O-])[O-].O=C([O-])[O-].OO.OO.OO.[Na+].[Na+].[Na+].[Na+] [O, Percarbonate] |  |  |  | Bacterial no. (concentration of bacteria remaining after 60 minutes) [1]: 6.39 Log10cfu/ml |
| Perborate.4 H2O [Example H] | <2.59 |  |  |  |
